Calls of active or inactive are those of the source.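 How the source made its calls: active means lipid-stain IC50 at or below a set limit, with nuclear-stain toxicity IC50 at least five times higher; inactive means the rest.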

For one experiment, the system named is DAPI. Kind of experiment: TAG lipid buildup inhibition with viability readout – cell-based, panel, Nile Red and DAPI fluorescence, H9c2, dose response (AID 651630).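 Further: cells exposed to compound overnight before fixation and staining.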 Conditions: H9c2 cells, DAPI nuclear fluorescence (cytotoxicity counter-readout), oleic acid.
A further experiment relates to TAG. Described as above. Conditions: H9c2 cells, Nile Red TAG fluorescence, oleic acid.

For the molecule `CNC(=O)c1ccc(-c2sc3nc(N4CCOCC4)c4c(c3c2N)CCCC4)o1`, the values for the IC50 cytotoxicity (DAPI nuclear signal decrease) in the experiment with DAPI (mean of runs), in the experiment on DAPI (run 1) and in the experiment with DAPI (run 2) were > 25 µM (inactive), over 25 µM and over 25 µM, respectively. Moreover, the IC50 (in general, the point on the concentration scale where inhibition reaches its midpoint) with TAG (mean of runs) is 6.57 µM; in the experiment on TAG (run 1), 5.49 µM; with TAG (run 2), 7.64 µM.
For the molecule `O=C1N[C@@H](Cc2ccccc2)COC(=O)[C@@H](Cc2ccc(F)cc2)CC/C=C/C[C@@H]1CC(=O)N(CCO)Cc1ccccc1`, the IC50 cytotoxicity (DAPI nuclear signal decrease) in the experiment with DAPI (mean of runs) is > 25 µM (inactive); in the experiment with DAPI (run 1), over 25 µM; in the experiment on DAPI (run 2) it was over 25 µM. In addition, the IC50 in the experiment with TAG (mean of runs) is 20.4 µM (inactive); with TAG (run 1), 18.5 µM; in the experiment on TAG (run 2), 22.3 µM.
Turning to `COCCOC(=O)c1[nH]c2c(c1C)C(=O)CC(c1ccccc1)C2` (stereo not drawn), the values for the IC50 cytotoxicity (DAPI nuclear signal decrease) in the experiment with DAPI (mean of runs), in the experiment on DAPI (run 1) and with DAPI (run 2) were > 25 µM (inactive), over 25 µM and over 25 µM, respectively. Besides, the figures for the IC50 with TAG (mean of runs), in the experiment with TAG (run 1) and in the experiment with TAG (run 2) were > 25 µM (inactive), over 25 µM and over 25 µM, respectively.
With `Cc1nc(N/N=C/c2cccc(F)c2)cc(N2CCOCC2)n1`, the figures for the IC50 cytotoxicity (DAPI nuclear signal decrease) in the experiment on DAPI (mean of runs), in the experiment on DAPI (run 1) and with DAPI (run 2) were > 25 µM (inactive), over 25 µM and over 25 µM, respectively. The half-maximal inhibitory concentration (IC50) in the experiment with TAG (mean of runs) was 13.8 µM; in the experiment on TAG (run 1), 10.9 µM; with TAG (run 2), 16.6 µM.
For the molecule `CCOc1ccc(C(=O)NC(=S)Nc2cccc(S(=O)(=O)NC3=NCCC3)c2)cc1`, the results for the IC50 cytotoxicity (DAPI nuclear signal decrease) in the experiment on DAPI (mean of runs), in the experiment with DAPI (run 1) and in the experiment with DAPI (run 2) were > 25 µM (inactive), over 25 µM and over 25 µM, respectively. The results for the IC50 with TAG (mean of runs), in the experiment on TAG (run 1) and with TAG (run 2) were > 25 µM (inactive), over 25 µM and over 25 µM, respectively.
In the case of `CCOC(=O)Cc1ccc(Nc2nc3cc(-c4sccc4C)sc3c(=O)n2C)cc1`, the IC50 cytotoxicity (DAPI nuclear signal decrease) in the experiment with DAPI (mean of runs) is > 25 µM (inactive); in the experiment with DAPI (run 1), over 25 µM; in the experiment with DAPI (run 2) it was over 25 µM. The IC50 with TAG (mean of runs) was 18.5 µM (inactive); with TAG (run 1), 12.9 µM; with TAG (run 2), 24.1 µM.
For `O=C1C(Cl)=C(NCc2ccco2)C(=O)c2ccccc21`, the results for the IC50 cytotoxicity (DAPI nuclear signal decrease) with DAPI (mean of runs), in the experiment on DAPI (run 1) and in the experiment with DAPI (run 2) were > 25 µM (inactive), over 25 µM and over 25 µM, respectively. For the same molecule, the values for the IC50 with TAG (mean of runs), in the experiment on TAG (run 1) and in the experiment with TAG (run 2) were > 25 µM (inactive), over 25 µM and over 25 µM, respectively.
For the molecule `O=C(C[C@H]1C[C@H](C(=O)N2CCOCC2)[C@@]2(CCC3CCCC3)c3[nH]c4ccc(Cl)cc4c3CCN2C1=O)NCC12CC3CC(CC(C3)C1)C2`, the IC50 cytotoxicity (DAPI nuclear signal decrease) was > 25 µM (inactive) in the experiment with DAPI (mean of runs), over 25 µM in the experiment with DAPI (run 1) and over 25 µM in the experiment with DAPI (run 2). The results for the IC50 in the experiment on TAG (mean of runs), in the experiment on TAG (run 1) and in the experiment on TAG (run 2) were > 25 µM (inactive), over 25 µM and over 25 µM, respectively.
With `O=C1C=CC(O)C2(CO)OC12` (stereo not drawn), the IC50 cytotoxicity (DAPI nuclear signal decrease) with DAPI (mean of runs) was > 25 µM (inactive); in the experiment with DAPI (run 1), over 25 µM; in the experiment on DAPI (run 2), over 25 µM. Moreover, the results for the IC50 with TAG (run 1) and in the experiment with TAG (run 2) were 14.4 µM and over 25 µM, respectively.
Take `Cc1ccc(CNC(=O)c2ccc(N3CCC4(CC3)CC(c3ccccc3)=NO4)c(NC(=O)c3ccc(Br)cc3)c2)cc1`: the IC50 cytotoxicity (DAPI nuclear signal decrease) in the experiment on DAPI (run 1) and in the experiment with DAPI (run 2) was over 25 µM each time. Further, the IC50 with TAG (mean of runs) was 4.43 µM; in the experiment on TAG (run 1), 3.68 µM; in the experiment on TAG (run 2), 5.18 µM.
For the molecule `COc1ccc(-c2csc(NC(=S)NC(=O)/C=C/c3ccco3)n2)cc1Br`, the results for the IC50 cytotoxicity (DAPI nuclear signal decrease) in the experiment on DAPI (mean of runs), in the experiment with DAPI (run 1) and in the experiment on DAPI (run 2) were > 25 µM (inactive), over 25 µM and over 25 µM, respectively. The half-inhibitory concentration (IC50) in the experiment on TAG (mean of runs) is 8 µM; with TAG (run 1), 5.89 µM; in the experiment on TAG (run 2), 10.1 µM.
Take `CCc1ccc(-c2nc(C(N)=O)c3[nH]c(=O)n(-c4ccccc4OC)c3n2)cc1`: the IC50 cytotoxicity (DAPI nuclear signal decrease) with DAPI (run 1) and in the experiment with DAPI (run 2) was over 25 µM throughout. For the same molecule, the IC50 in the experiment with TAG (mean of runs) is 2.73 µM; in the experiment on TAG (run 1), 2.74 µM; in the experiment on TAG (run 2), 2.71 µM.
`Cc1cc(N/N=C\c2ccc(Br)cc2)nc(-n2nc(C)cc2C)n1`: the IC50 cytotoxicity (DAPI nuclear signal decrease) with DAPI (mean of runs) is > 25 µM (inactive); in the experiment with DAPI (run 1), over 25 µM; with DAPI (run 2), over 25 µM. Further, the IC50 with TAG (mean of runs) was > 25 µM (inactive); in the experiment on TAG (run 1), over 25 µM; in the experiment with TAG (run 2) it was over 25 µM.
`CCCCCC(=O)Nc1nc(C)c(-c2csc(Nc3cc(OC)ccc3OC)n2)s1`: the values for the IC50 cytotoxicity (DAPI nuclear signal decrease) with DAPI (mean of runs), in the experiment with DAPI (run 1) and in the experiment on DAPI (run 2) were > 25 µM (inactive), over 25 µM and over 25 µM, respectively. The IC50 is 14.6 µM in the experiment on TAG (mean of runs), 13.3 µM in the experiment on TAG (run 1) and 15.8 µM with TAG (run 2).
With `C[C@H](O)[C@@H]1CN2CCc3c([nH]c4ccc(-c5ccc6c(c5)OCO6)cc34)[C@@H]2C[C@@H]1N(C)C(=O)Nc1cc(Cl)cc(Cl)c1`, the IC50 cytotoxicity (DAPI nuclear signal decrease) with DAPI (mean of runs) is > 25 µM (inactive); in the experiment on DAPI (run 1), over 25 µM; in the experiment with DAPI (run 2), over 25 µM. For the same molecule, the figures for the IC50 with TAG (mean of runs), in the experiment with TAG (run 1) and with TAG (run 2) were 18.2 µM (inactive), 11.9 µM and 24.5 µM, respectively.
In the case of `C#CCN(C[C@@H]1[C@@H](OC(=O)NCc2ccco2)[C@@H](OC(=O)NCc2ccco2)CN(C(=O)OC(C)C)N1C(=O)OC(C)C)S(=O)(=O)c1ccc(C)cc1`, the values for the IC50 cytotoxicity (DAPI nuclear signal decrease) with DAPI (run 1) and in the experiment on DAPI (run 2) were 16.5 µM and over 25 µM, respectively. Also, the IC50 with TAG (mean of runs) is 15.1 µM (inactive); with TAG (run 1), 16.2 µM; in the experiment with TAG (run 2) it was 14 µM.
In the case of `CCCCNc1c(-c2ccc(-c3ccc(C(C)=O)cc3)c(OC)c2)nc2cc(C)ccn12`, the IC50 cytotoxicity (DAPI nuclear signal decrease) in the experiment with DAPI (mean of runs) is > 25 µM (inactive); in the experiment with DAPI (run 1), over 25 µM; in the experiment on DAPI (run 2), over 25 µM. Moreover, the IC50 with TAG (run 1) was over 25 µM; in the experiment with TAG (run 2), 22.5 µM.
With `CNC(=S)NN=C(C)CCCC(C)=NNC(=S)NC`, the IC50 cytotoxicity (DAPI nuclear signal decrease) in the experiment on DAPI (run 1) was 11.3 µM; in the experiment on DAPI (run 2) it was over 25 µM. Further, the IC50 with TAG (mean of runs) is > 25 µM (inactive); with TAG (run 1), over 25 µM; in the experiment with TAG (run 2), over 25 µM.
As for `COC(=O)c1ccc(Oc2cc(C)nc(SC)n2)cc1`, the IC50 cytotoxicity (DAPI nuclear signal decrease) in the experiment with DAPI (mean of runs) was > 25 µM (inactive); with DAPI (run 1) it was over 25 µM; with DAPI (run 2), over 25 µM. Besides, the IC50 in the experiment on TAG (run 1) is over 25 µM; with TAG (run 2), 14.1 µM.
Regarding `COC(=O)[C@]1(CC(C)C)N[C@H](c2ccc(-c3ccc(F)cc3)cc2)[C@@H]2C(=O)N(C)C(=O)[C@@H]21`, the IC50 cytotoxicity (DAPI nuclear signal decrease) with DAPI (mean of runs) was > 25 µM (inactive); in the experiment with DAPI (run 1), over 25 µM; in the experiment with DAPI (run 2), over 25 µM. Also, the figures for the IC50 in the experiment with TAG (mean of runs), in the experiment on TAG (run 1) and with TAG (run 2) were 14.9 µM, 14.6 µM and 15.1 µM, respectively.
